Entries after “also recorded” stand apart in the source; their conditions may differ.
Tests used:
[1] = Body weight and behaviour of DM/HC pigs during the study period; format: in vivo, pig
Description: (§1) At one month after stabilization of cholersterol at 250-800 mg/dl, the animals were randomized into two experimental groups, DM/HC (hyperglycemia and hypercholesterolemia) group with no treatment and treatment group (10 mg/kg/day of SB-480848, also referred to as 1-(N-(2-(diethylamino)ethyl)-N-(4-(4-trifluoromethylphenyl)benzyl)-aminocarbonylmethyl)-2-(4-fluorobenzyl)thio-5,6-trimethylenepyrimidin-4-one). The animals were then placed into two separate rooms with control animals in one room and treated animals in the other room in order to ensure that no drug would be found in the control animals. The animals were visually inspected twice daily, the visual inspections being between 8-10 hours apart, for skin abscess, especially in the leg and foot. To be considered an abscess, the minimal abscess size was 1 mm with redness in the surrounding area. When abscesses were detected, treatment was applied. Treatment comprise assessing the size and depth of abscess, draining and cleaning the abscess of dead tissue and cells, washing with Betadine, drying and bandaging with sterile dressing, and oral regime of antibiotics. Treatment was applied daily till the infection in the open sore was cleared (absence of pus) and the open sore healed by shrinkage in size and the opening was completely closed. Cultures of the abscess were carried out to determine the pathogen responsible for the infection. […]

[2] = test system: DM/HC pigs (skin abscess); test: Skin abscess occurrence in diabetic/hypercholesterolemic (DM/HC) pig model; format: in vivo; conditions: for Development of skin abscess over the treatment period: DM/HC pigs treated for 6 months; for Further or recurring abscess after initiation of daily inhibitor treatment in pigs that already had an abscess: pigs #948 and #963, daily single dose
Description: A diabetic/diabetic hypercholestrolemic pig model (DM/HC) was developed that mimics human-like diabetes and human-like atherosclerosis. Farm pigs weighing 25-30 kg and aged ˜4 months were made diabetic with a single intravenous injection of 125 mg/kg of streptozotocin (Sicor Pharmaceuticals, Irvine, Calif.). After stabilized for 1-2 weeks, the animals with elevated levels of plasma glucose (>150 mg/dl) were fed with atherogenic (high-fat) diet as shown in Table 1 (Animal Specialties, Quakertown, Pa.) to achieve a cholesterol level of approximately 250-800 mg/dl.
For the 0.5% cholesterol diet the components are similar with the exception of 0.5% cholesterol and 20% lard. The animals were Yorkshire pigs that were castrated males at the age of […] and were obtained from Archer Farms, Darlington, Md. These feeds were prepared by Animal Specialties and Provisions, LLC, Quakertown, Pa. USA.
On days 1-2, animals were fed normal chow, followed by on days 3-14 animals were fed a diet of 0.5% cholesterol, 2% lard and on day 14, cholesterol levels were measured and the diet adjusted accordingly to increase to 2% cholesterol, 10% lard if cholesterol is <300 mg/dl. Following induction of DM/HC, cholesterol was measured until cholesterol levels are stable between 300 and 800 mg/dl, and following cholesterol stabilization, cholesterol was measured monthly. If cholesterol levels were unstable following initial stabilization phase, the diet of the animal was returned to the initial two-week measurement schedule. Monthly cholesterol levels were determined, including levels of total cholesterol, LDL, HDL, VLDL and triglycerides.
as §1
Two diabetic/hypercholesterolemic groups were evaluated: 1. […] In addition blood cholesterol levels were maintained between 300 and 800 mg/dl in experimental animals, this range having been determined to provide a better test model. Blood cholesterol levels were monitored in all animals on a bimonthly basis, as shown in Table 4 and adjustments were made to the fat content of the feed accordingly, as shown in Table 2. […]

CCN(CC)CCN(Cc1ccc(-c2ccc(C(F)(F)F)cc2)cc1)C(=O)Cn1c(SCc2ccc(F)cc2)nc(=O)c2c1CCC2 [SB-480848, 1-(N-(2-(Diethylamino)ethyl)-N-(4-(4-trifluoromethylphenyl)benzyl)aminocarbonylmethyl)-2-(4-fluorobenzyl)thio-5,6-trimethylenepyrimidin-4-one]
Responsiveness and activity compared to control animals ([1]; observed during the study period): more responsive to external stimuli
Weight ([1]; treated animals at end of study, from a baseline of 26.9 kg, control 50.9 kg from 30.3 kg): 62.5 kg
Development of skin abscess over the treatment period [2]: no pig developed any skin abscesses
Development of skin abscess over the treatment period ([2]; listed as Lp-PLA2 inhibitor): no one developed any abscess
Further or recurring abscess after initiation of daily inhibitor treatment in pigs that already had an abscess [2]: No further abscess developed; also recorded: remained skin abscesses-free
Further or recurring abscess after initiation of daily inhibitor treatment in pigs that already had an abscess ([2]; listed as Lp-PLA2 inhibitor): No further abscess developed
Average healing time of treated abscesses ([2]; pigs #948 and #963 of the treated group, abscesses developed before start of inhibitor, standard wound care): 1-2 weeks
